# Patent US20030057401A1, “Inhibitor compositions” (priority 1999, published 2003)
# System: sessile SRB colonies
# Assay: Experiment 4: biocidal efficacy for planktonic and sessile bacteria, studs from Robins device, 3 hr contact
# Assay type: cell-based, Sulphate Reducing Bacteria (SRB)
# Conditions: if it can penetrate the glycocalyx
# Procedure: The purpose of killing planktonic SRB is to prevent the formation of sessile SRB colonies. A series of tests has been conducted in which viable sessile cultures have been treated with a range of biocides. Synthetic Seawater [table] Additional nutrients were added to water to encourage bacteria growth. Experiment 4 is a comparison of biocidal efficacy for planktonic and sessile bacteria. Viable SRB colonies are established on studs in a Robins device. The studs are removed, washed in sterile sea water and treated with solutions containing the test biocide. After exposures of 1, 3, 4, 8 or extended periods, coupons are rinsed, scraped and suspended in fresh synthetic sea water. Serial dilutions and ATP analyses are conducted on the samples to determine bacterial activity.
smiles,measurement,value
O=CCCCC=O [glutaraldehyde],comparative biocidal efficacy on sessile SRB colonies,more effective biocide than quaternary amines
